Measured values from ChEMBL document CHEMBL5715936, “Selective Itk inhibitors block T-cell activation and murine lung inflammation” (Biochemistry, 2004).
The source made the active and inactive calls. The calls are words filed in the database; no cut-off is given here.

Experiments:
[1] = molecular target: Epidermal growth factor receptor (Homo sapiens, UniProt P00533); experiment: Inhibition of EGFR (unknown origin) using GST-SLP-76 as peptide substrate incubated for 10 mins in presence of [gamma-33P]ATP by scintillation counter assay
Protein kinase C (PKC) = experiment: Inhibition of PKC (unknown origin) using GST-SLP-76 as peptide substrate incubated for 10 mins in presence of [gamma-33P]ATP by scintillation counter assay; assay type: protein assay, Homo sapiens
[2] = molecular target: T1, Tyrosine-protein kinase ITK/TSK (Homo sapiens) (UniProt Q08881); experiment: Inhibition of Itk in human Jurkat T cells assessed as inhibition of IL-2 secretion incubated for 16 hrs in presence of anti-CD3 antibody G19-4 by ELISA analysis; assay type: cell-based
T1 sequence (whole entry): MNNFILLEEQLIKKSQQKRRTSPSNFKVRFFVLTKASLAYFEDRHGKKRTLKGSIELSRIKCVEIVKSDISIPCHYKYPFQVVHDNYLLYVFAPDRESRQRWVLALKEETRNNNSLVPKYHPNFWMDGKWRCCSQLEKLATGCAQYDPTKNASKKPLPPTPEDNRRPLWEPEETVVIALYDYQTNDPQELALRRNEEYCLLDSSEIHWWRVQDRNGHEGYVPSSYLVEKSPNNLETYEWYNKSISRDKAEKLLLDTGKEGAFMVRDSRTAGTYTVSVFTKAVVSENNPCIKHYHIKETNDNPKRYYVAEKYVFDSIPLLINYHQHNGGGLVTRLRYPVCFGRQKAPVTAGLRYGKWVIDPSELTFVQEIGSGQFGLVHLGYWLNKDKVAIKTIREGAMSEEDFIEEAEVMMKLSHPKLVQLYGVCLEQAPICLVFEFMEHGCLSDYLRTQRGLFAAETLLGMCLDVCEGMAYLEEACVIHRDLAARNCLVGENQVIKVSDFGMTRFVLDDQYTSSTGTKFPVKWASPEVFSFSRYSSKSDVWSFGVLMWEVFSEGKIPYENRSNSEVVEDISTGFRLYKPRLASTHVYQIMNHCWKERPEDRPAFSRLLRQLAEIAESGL

[3] = molecular target: T1, Tyrosine-protein kinase ITK/TSK (Homo sapiens); experiment: Inhibition of Itk in human PBMC cells assessed as inhibition of IL-2 secretion incubated for 16 hrs in presence of anti-CD3 antibody G19-4 by ELISA analysis; assay type: cell-based
Mus musculus [4] = experiment: In vivo inhibition of IL-2 production in Balb/c mouse serum administered for 15 mins in presence of anti-CD3 antibody by ELISA analysis; assay type: functional, organism-based; settings: dose 50-100 mg/kg, route sc
Mus musculus [5] = experiment: In vivo inhibition of IL-2 production in Balb/c mouse serum at >=50 mg/kg, sc administered for 15 mins in presence of anti-CD3 antibody by ELISA analysis; assay type: functional, organism-based
[6] = molecular target: Cyclin-dependent kinase 2 (Homo sapiens, UniProt P24941); experiment: Inhibition of Cdk2 (unknown origin) using GST-SLP-76 as peptide substrate incubated for 10 mins in presence of [gamma-33P]ATP by scintillation counter assay
Mus musculus [7] = experiment: Anti-inflammatory activity against ovalbumin induced Balb/c mouse bronchoalveolar lavage assessed as reduction in total cell infiltration administered twice daily for 3 days by microscopic analysis; assay type: functional, organism-based; settings: dose 5-25 mg/kg, route sc, time 3.0 day
Mus musculus [8] = experiment: Anti-inflammatory activity against ovalbumin induced Balb/c mouse bronchoalveolar lavage assessed as reduction in eosinophil infiltration administered twice daily for 3 days by microscopic analysis; assay type: functional, organism-based; settings: dose 5-25 mg/kg, route sc, time 3.0 day

Chain of Epidermal growth factor receptor (P00533 whole entry): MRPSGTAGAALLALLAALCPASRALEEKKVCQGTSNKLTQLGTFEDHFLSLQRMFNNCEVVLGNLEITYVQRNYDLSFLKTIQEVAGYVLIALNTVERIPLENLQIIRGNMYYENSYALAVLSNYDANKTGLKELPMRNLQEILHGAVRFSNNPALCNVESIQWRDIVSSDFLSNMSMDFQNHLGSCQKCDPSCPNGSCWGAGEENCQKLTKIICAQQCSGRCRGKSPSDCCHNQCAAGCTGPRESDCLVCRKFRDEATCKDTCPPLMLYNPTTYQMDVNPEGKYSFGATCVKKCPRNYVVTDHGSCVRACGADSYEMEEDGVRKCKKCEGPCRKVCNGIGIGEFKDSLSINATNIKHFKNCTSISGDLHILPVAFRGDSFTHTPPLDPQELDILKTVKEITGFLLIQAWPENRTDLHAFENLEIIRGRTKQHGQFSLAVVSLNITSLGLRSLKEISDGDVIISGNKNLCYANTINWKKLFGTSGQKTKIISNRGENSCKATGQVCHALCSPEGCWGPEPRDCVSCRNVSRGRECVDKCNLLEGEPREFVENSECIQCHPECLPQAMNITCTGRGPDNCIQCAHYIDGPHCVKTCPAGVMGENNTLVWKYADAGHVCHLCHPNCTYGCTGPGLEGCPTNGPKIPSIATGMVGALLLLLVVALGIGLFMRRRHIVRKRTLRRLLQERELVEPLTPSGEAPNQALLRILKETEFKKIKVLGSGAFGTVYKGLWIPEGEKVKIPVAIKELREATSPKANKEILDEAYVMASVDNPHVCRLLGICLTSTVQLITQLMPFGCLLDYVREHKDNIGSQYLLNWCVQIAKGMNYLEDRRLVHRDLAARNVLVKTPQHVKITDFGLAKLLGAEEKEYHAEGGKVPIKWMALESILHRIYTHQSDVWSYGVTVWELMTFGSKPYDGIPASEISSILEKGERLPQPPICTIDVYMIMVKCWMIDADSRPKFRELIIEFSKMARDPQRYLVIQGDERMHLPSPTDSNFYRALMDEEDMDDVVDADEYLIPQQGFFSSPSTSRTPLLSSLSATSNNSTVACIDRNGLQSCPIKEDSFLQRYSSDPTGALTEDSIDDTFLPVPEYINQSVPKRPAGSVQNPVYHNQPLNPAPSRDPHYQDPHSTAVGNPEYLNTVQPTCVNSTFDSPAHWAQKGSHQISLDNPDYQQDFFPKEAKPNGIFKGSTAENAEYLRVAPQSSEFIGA

SMILES | IC50 [1] [µM] | IC50 (Protein kinase C (PKC)) [µM] | inhibition [2] | inhibition [3] | inhibition (Mus musculus [4]) | inhibition (Mus musculus [5]) | IC50 [6] [µM] | Activity (Mus musculus [7]) | Activity (Mus musculus [8])
CC(=O)N1CCN(C(=O)c2cc(CSc3cnc(NC(=O)c4ccc(CNC(C)C(C)(C)C)cc4)s3)cc(C)c2C)CC1 (centres undefined) | > 50 | 21 | Dose-Dependent Effect | Dose-Dependent Effect | Dose-Dependent Effect | Active | – | – | –
COc1cc(C)c(Sc2cnc(NC(=O)c3ccc(CNC(C)C(C)(C)C)cc3)s2)cc1C(=O)N1CCN(C(C)=O)CC1 (centres undefined) | – | – | – | – | – | – | 29 | Dose-Dependent Effect | Dose-Dependent Effect
